Data on 70 compounds can be found in US8106197B2, “Aminoheteroaryl compounds as protein kinase inhibitors” (Pfizer Inc., priority 2003, dated 2012).

The target of the assay is T1, HGFR (Homo sapiens, UniProt P08581).
T1 construct: purchased Upstate 14-526
Nature of the assay: HGFR continuous-coupled spectrophotometric assay. The following applies: for inhibition at 1 µM: Table 6, percent c-MET inhibition at 1 μM, read-out: % inhibition; for I(%): Table 3, Ki(μM) or I(%), test concentration not given. Type of assay: biochemical.

[1] abbreviates: Table 5, percent c-MET inhibition at 50 nM.

Read-outs that look alike come from different tables or passages of the source.

T1 sequence (P08581 974-1390 limits assumed): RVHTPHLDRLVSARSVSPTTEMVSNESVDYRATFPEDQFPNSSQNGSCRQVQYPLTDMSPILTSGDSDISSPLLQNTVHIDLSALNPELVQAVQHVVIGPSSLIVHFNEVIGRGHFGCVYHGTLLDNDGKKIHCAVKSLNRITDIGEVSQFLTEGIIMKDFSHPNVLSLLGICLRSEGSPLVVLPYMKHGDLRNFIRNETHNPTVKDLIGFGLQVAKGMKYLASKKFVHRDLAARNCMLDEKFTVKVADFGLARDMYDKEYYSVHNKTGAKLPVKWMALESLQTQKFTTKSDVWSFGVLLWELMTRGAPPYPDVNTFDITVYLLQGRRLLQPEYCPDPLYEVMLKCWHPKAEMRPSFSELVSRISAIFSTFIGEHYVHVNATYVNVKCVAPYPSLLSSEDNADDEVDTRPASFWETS

By inhibition is commonly meant the change of the read-out against control, counted positive when it falls. `Nc1ncc(C(=O)NCCC2CCC(=O)N2CCc2ccc(O)cc2)cc1OCc1c(Cl)cccc1Cl` (stereo not shown): the inhibition at 1 µM amounted to 16%.
With `CCc1nc(COc2cc(-c3ccc(C(=O)N4CCC(N5CCCC5)CC4)cc3)cnc2N)no1`, the “% inhibition” value is given as “% inhibition = 5”.
Take `Nc1ncc(C(=O)N2CCN(c3ccc(Br)cn3)CC2)cc1OCc1c(Cl)cccc1Cl`: the inhibition at 1 µM came out at 5%.
With `Nc1ncc(C(=O)N2CCCC(O)(COc3cccc(F)c3)C2)cc1OCc1c(Cl)cccc1Cl` (stereo not shown), the inhibition at 1 µM amounted to 36%.
With `Cc1cccc(C)c1-c1cnc(N)c(OC(C)c2c(Cl)ccc(F)c2Cl)c1` (stereo not shown) [Example I-567, 3-[1-(2,6-Dichloro-fluoro-pheny)-ethoxy]-5-(2,6-dimethylphenyl)-pyridin-2-ylamine], the “I(%)” value stood at 0%.
For `Nc1ncc(-c2ccc(C(=O)N3CCC(N4CCCC4)CC3)cc2)cc1OCc1nc2ncccc2o1`, the “% inhibition” value is given as “% inhibition = 17”.
On the same count and under the same terms, the value for `Nc1ncc(-c2ccc(C(=O)N3CCC(N4CCCC4)CC3)cc2)cc1OCc1ccc(C(F)(F)F)cc1C(F)(F)F` was “% inhibition = 12”.
In the case of `Nc1ncc(C(=O)NCc2ccc(OC(F)(F)F)cc2)cc1OCc1c(Cl)cccc1Cl`, the inhibition at 1 µM was found to be 24%.
Still for that read-out and setting: the value for `CCCN(CCO)C1CCCN(C(=O)c2cnc(N)c(OCc3c(Cl)cccc3Cl)c2)CC1` (stereo not shown) was 17%.
Still for that read-out and setting: with `Nc1ncc(C(=O)N2CCNC(=O)C2)cc1OCc1c(Cl)cccc1Cl` the figure was 22%.
In the case of `COc1cc(OC)nc(COc2cc(-c3ccc(C(=O)N4CCC(N5CCCC5)CC4)cc3)cnc2N)n1`, the “% inhibition” value is “% inhibition = 20”.
On the same count and under the same terms, the value for `Nc1ncc(-c2ccc(C(=O)N3CCC(N4CCCC4)CC3)cc2)cc1OCc1cccc(Oc2ccccc2)c1` was “% inhibition = 34”.
`CC(Oc1cc(-c2ccc(C(=O)N[C@H](CO)c3ccccc3)cc2)cnc1N)c1c(Cl)ccc(F)c1Cl` (stereo partly shown): at 0.05 µM the inhibition under setting [1] was 69%.
For `Nc1ncc(C(=O)NCc2c(F)cccc2F)cc1OCc1c(Cl)cccc1Cl`, the inhibition at 1 µM was 32%.
Still for that read-out and setting: with `CC(=O)N(C)C1CCN(C(=O)c2cnc(N)c(OCc3c(Cl)cccc3Cl)c2)C1` (stereo not shown) the figure was 31%.
As to `CN(CCS(C)(=O)=O)C(=O)c1cnc(N)c(OCc2c(Cl)cccc2Cl)c1`, the inhibition at 1 µM stood at 26%.
Consider `Nc1ncc(C(=O)N2CCCC(C(=O)N3CCCC3)C2)cc1OCc1c(Cl)cccc1Cl` (stereo not shown), for which the inhibition at 1 µM was found to be 47%.
Take `Nc1ncc(-c2ccc(C(=O)N3CCC(N4CCCC4)CC3)cc2)cc1OCc1ccc(C(F)(F)F)cc1`: the “% inhibition” value is on record as “% inhibition = 10”.
On the same count and under the same terms, the value for `Nc1ncc(-c2ccc(C(=O)N3CCC(N4CCCC4)CC3)cc2)cc1OCc1cccc(OC(F)(F)F)c1` was “% inhibition = 13”; that for `Nc1ncc(-c2ccc(C(=O)N3CCC(N4CCCC4)CC3)cc2)cc1OCc1ccc(-c2csnn2)cc1` was “% inhibition = 41”.
Take `Nc1ncc(C(=O)NC2COC3(CCN(c4ncccn4)CC3)C2)cc1OCc1c(Cl)cccc1Cl` (stereo not shown): the inhibition at 1 µM amounted to 21%.
The same measure, in the same setting: with `Nc1ncc(C(=O)N2CCC(N3CCCCC3=O)CC2)cc1OCc1c(Cl)cccc1Cl` the figure was 26%.
For `COc1ccc(OC)c(COc2cc(-c3ccc(C(=O)N4CCC(N5CCCC5)CC4)cc3)cnc2N)c1`, the “% inhibition” value was “% inhibition = 19”.
For `Nc1ncc(C(=O)NC(CO)Cc2ccc(Cl)cc2)cc1OCc1c(Cl)cccc1Cl` (stereo not shown), the inhibition at 1 µM worked out at 27%.
Still for that read-out and setting: with `Nc1ncc(C(=O)N2CCCN(Cc3ccc(F)cc3)CC2)cc1OCc1c(Cl)cccc1Cl` the figure was 26%.
Turning to `Cc1cc(-c2onc(C)c2COc2cc(-c3ccc(C(=O)N4CCC(N5CCCC5)CC4)cc3)cnc2N)no1`, the “% inhibition” value is on record as “% inhibition = 22”.
On the same count and under the same terms, with `Nc1ncc(-c2ccc(C(=O)N3CCC(N4CCCC4)CC3)cc2)cc1OCc1c(F)cccc1C(F)(F)F` the entry was “% inhibition = 31”.
On to `Nc1ncc(C(=O)NCc2ccccc2OC(F)(F)F)cc1OCc1c(Cl)cccc1Cl`, for which the inhibition at 1 µM turned out to be 31%.
On to `CC(C)(C)c1ccc(-c2noc(COc3cc(-c4ccc(C(=O)N5CCC(N6CCCC6)CC5)cc4)cnc3N)n2)cc1`, for which the “% inhibition” value is on record as “% inhibition = 36”.
For `Nc1ncc(C(=O)NCC(O)CN2CCC(Cc3ccccc3)CC2)cc1OCc1c(Cl)cccc1Cl` (stereo not shown), the inhibition at 1 µM amounted to 32%.
Turning to `CC(Oc1cc(-c2ccc(C(=O)N3CCC(N4CCCC4)CC3)cc2)cnc1N)c1ccccc1` (stereo not shown), the “% inhibition” value was “% inhibition = 10”.
For `Nc1ncc(C(=O)N[C@@H]2CCCC[C@H]2CO)cc1OCc1c(Cl)cccc1Cl`, the inhibition at 1 µM was determined as 24%.
For the compound `Nc1ncc(-c2ccc(C(=O)N3CCC(N4CCCC4)CC3)cc2)cc1OCc1cn2cc(Cl)ccc2n1`, the “% inhibition” value is recorded as “% inhibition = 16”.
For `COc1ccccc1CNC(=O)c1cnc(N)c(OCc2c(Cl)cccc2Cl)c1`, the inhibition at 1 µM was 32%.
Turning to `Nc1ncc(-c2ccc(C(=O)N3CCC(N4CCCC4)CC3)cc2)cc1OCc1cc(F)ccc1C(F)(F)F`, the “% inhibition” value was “% inhibition = 26”.
On to `CN(CC#N)C(=O)c1cnc(N)c(OCc2c(Cl)cccc2Cl)c1`, for which the inhibition at 1 µM turned out to be 30%.
For the compound `Nc1ncc(-c2ccc(C(=O)N3CCC(N4CCCC4)CC3)cc2)cc1OCc1ccccn1`, the “% inhibition” value is recorded as “% inhibition = 16”.
In the case of `Cc1ccc2c(c1)C(NC(=O)c1cnc(N)c(OCc3c(Cl)cccc3Cl)c1)CCO2` (stereo not shown), the inhibition at 1 µM was found to be 17%.
As to `Nc1ncc(-c2ccc(C(=O)N3CCC(N4CCCC4)CC3)cc2)cc1OCc1nc(-c2ccccn2)no1`, the “% inhibition” value is listed as “% inhibition = 9”.
As for `CC(Oc1cc(-c2ccc(C(=O)N[C@H](C)C3CCCCC3)cc2)cnc1N)c1c(Cl)ccc(F)c1Cl` (stereo partly shown) [drawing 1068], at 0.05 µM the inhibition under setting [1] was 60%.
For `Nc1ncc(-c2ccc(C(=O)N3CCC(N4CCCC4)CC3)cc2)cc1OCc1ccccc1OC(F)(F)F`, the “% inhibition” value is recorded as “% inhibition = 21”.
Take `CC(Oc1cc(-c2ccc(C(=O)NC(CO)C(C)C)cc2)cnc1N)c1c(Cl)ccc(F)c1Cl` (stereo not shown): testing at 0.05 µM under setting [1] gave an inhibition of 65%.
In the case of `Nc1ncc(C(=O)NC2CCCNC2=O)cc1OCc1c(Cl)cccc1Cl` (stereo not shown), the inhibition at 1 µM came out at 16%.
In the case of `CC(Oc1cc(-c2ccc(C(=O)N[C@H]3CC[C@H](O)CC3)cc2)cnc1N)c1c(Cl)ccc(F)c1Cl` (stereo partly shown) [drawing 1011], the “% inhibition” value (Table 5, percent c-MET inhibition at 50 nM, 0.05 µM) is reported as “% inhibition = 72”.
In the case of `Nc1ncc(C(=O)NCCc2ccc(S(N)(=O)=O)cc2)cc1OCc1c(Cl)cccc1Cl`, the inhibition at 1 µM worked out at 30%.
As for `CC(=O)c1ccccc1-c1cnc(N)c(OC(C)c2c(Cl)ccc(F)c2Cl)c1` (stereo not shown) [Example I-562, 1-(2-{6-Amino-5-[1-(2,6-dichloro-3-fluoro-phenyl)-ethoxy]-pyridin-3-yl}-phenyl)-ethanone], the “I(%)” value is on record as 8%.
Regarding `Cc1cccc(COc2cc(-c3ccc(C(=O)N4CCC(N5CCCC5)CC4)cc3)cnc2N)n1`, the “% inhibition” value is “% inhibition = 17”.
On the same count and under the same terms, the value for `Nc1ncc(-c2ccc(C(=O)N3CCC(N4CCCC4)CC3)cc2)cc1OCc1ccc(F)c(F)c1` was “% inhibition = 19”.
For the compound `Nc1ncc(C(=O)N2CCC3(CC2)CC3C(=O)N2CCCCC2)cc1OCc1c(Cl)cccc1Cl` (stereo not shown), the inhibition at 1 µM was found to be 26%.
Same read-out and setting: with `COCC1CN(CC(N)=O)CCN(C(=O)c2cnc(N)c(OCc3c(Cl)cccc3Cl)c2)C1` (stereo not shown) the figure was 23%; with `CN(C)C1CCN(C(=O)c2cnc(N)c(OCc3c(Cl)cccc3Cl)c2)C1` (stereo not shown), 33%.
Regarding `Cc1ccnc2nc(COc3cc(-c4ccc(C(=O)N5CCC(N6CCCC6)CC5)cc4)cnc3N)cn12`, the “% inhibition” value was “% inhibition = 10”.
For the compound `CC1CCCN(C(=O)c2ccc(-c3cnc(N)c(OC(C)c4c(Cl)ccc(F)c4Cl)c3)cc2)C1` (stereo not shown), under setting [1], the inhibition at 0.05 µM was 65%.
Take `CCC(CO)NC(=O)c1ccc(-c2cnc(N)c(OC(C)c3c(Cl)ccc(F)c3Cl)c2)cc1` (stereo not shown): the inhibition at 0.05 µM under setting [1] turned out to be 73%.
Consider `Nc1ncc(C(=O)N2CCC(O)C2)cc1OCc1c(Cl)cccc1Cl` (stereo not shown), for which the inhibition at 1 µM was found to be 83%.
Regarding `CC(=O)Nc1nc(COc2cc(-c3ccc(C(=O)N4CCC(N5CCCC5)CC4)cc3)cnc2N)cs1`, the “% inhibition” value is listed as “% inhibition = 9”.
For `Nc1ncc(C(=O)N2CCN(CCOCCO)CC2)cc1OCc1c(Cl)cccc1Cl`, the inhibition at 1 µM worked out at 33%.
As for `CCc1ccc(COc2cc(-c3ccc(C(=O)N4CCC(N5CCCC5)CC4)cc3)cnc2N)nc1`, the “% inhibition” value is “% inhibition = 15”.
Same read-out and setting: the value for `CS(=O)(=O)c1ccc(COc2cc(-c3ccc(C(=O)N4CCC(N5CCCC5)CC4)cc3)cnc2N)cc1` was “% inhibition = 11”; that for `Nc1ccc(-c2ccc(C(=O)N3CCC(N4CCCC4)CC3)cc2)cc1OC1OC(=O)c2ccccc21` (stereo not shown) was “% inhibition = 4”; that for `Nc1ncc(-c2ccc(C(=O)N3CCC(N4CCCC4)CC3)cc2)cc1OCc1ccc(C(=O)N2CCN(Cc3ccccc3)CC2)cc1` was “% inhibition = 12”.
As for `COc1cc(C(=O)N2C[C@@H](C)N[C@@H](C)C2)cc(OC)c1-c1cnc(N)c(OC(C)c2c(Cl)ccc(F)c2Cl)c1` (stereo partly shown) [Example I-550, (4-{6-Amino-5-[1-(2,6-dichloro-3-fluoro-phenyl)-ethoxy]-pyridin-3-yl)-3,5-dimethoxy-phenyl)-(dimethyl-piperazin-1-yl)-methanone], the “I(%)” value was determined as 15%.
On to `CN(CC(N)=O)C(=O)c1cnc(N)c(OCc2c(Cl)cccc2Cl)c1`, for which the inhibition at 1 µM was found to be 39%.
For `Nc1ncc(C(=O)NCCCN2CCCC2=O)cc1OCc1c(Cl)cccc1Cl`, the inhibition at 1 µM is 34%.
`Nc1ncc(-c2ccc(C(=O)N3CCC(N4CCCC4)CC3)cc2)cc1OCc1nc(-c2ccc(C(=O)N3CCCC3)cc2)no1`: the “% inhibition” value is recorded as “% inhibition = 11”.
In the case of `CCC(COC)NC(=O)c1ccc(-c2cnc(N)c(OC(C)c3c(Cl)ccc(F)c3Cl)c2)cc1` (stereo not shown), the inhibition at 0.05 µM under setting [1] was 59%.
Take `CC(C)NC(=O)CN1CCN(C(=O)c2cnc(N)c(OCc3c(Cl)cccc3Cl)c2)CC1`: the inhibition at 1 µM is 30%.
With `Cc1cnc2nc(COc3cc(-c4ccc(C(=O)N5CCC(N6CCCC6)CC5)cc4)cnc3N)nn2c1`, the “% inhibition” value is “% inhibition = 17”.
Same read-out and setting: with `Nc1ncc(-c2ccc(C(=O)N3CCC(N4CCCC4)CC3)cc2)cc1OCc1cccc(Cl)c1Cl` the entry was “% inhibition = 40”; with `CN(C)CCNC(=O)c1cccc(COc2cc(-c3ccc(C(=O)N4CCC(N5CCCC5)CC4)cc3)cnc2N)c1`, “% inhibition = 20”.
